Laboratory results: ChEMBL document CHEMBL1126151, “A study on the contribution of the 1-phenyl substituent to the molecular electrostatic potentials of some benzazepines in relation to selective dopamine D-1 receptor activity” (J Med Chem, 1992)

Target: Adenylate cyclase
Test: Compound was tested for the adenylate cyclase stimulation
Format: protein assay

Row | SMILES | EC50 [M]
1 | Oc1cc2c(cc1O)[C@@H](C1CCCCC1)CNCC2 | > 0.00001
2 | Oc1cc2c(cc1O)CCNCC2 | 5.2e-06
